In paper PMC11307993 (ACS Omega, 2024):
Where “and” joins values, the source holds several entries; their conditions need not be identical. Equal values may be shown once.

Assays:
[1] = test system: acetic acid-induced writhing; experiment: In vivo analgesic assay, acetic acid-induced writhing method; design: species or system Wistar rats; details: for potency: % inhibition of tested compound / % inhibition of reference (celecoxib); for % inhibition (number of writhing) / no. of writhes (mean ± SE): acetic acid-induced writhing
[2] = test system: serum levels of LDH, Tn-I, TNF-α and CK-MB; experiment: Evaluation of cardiovascular parameters; type: in vivo, rats; details: rat serum, 100 mg/kg oral, 2 weeks
rat stomach = experiment: Gastric ulcerogenic activity; type: in vivo; details: oral 10 mg/kg
[3] = test system: carrageenan induced rat paw edema; experiment: In vivo anti-inflammatory assay, carrageenan-induced paw edema; details: 2 mg/kg oral; for % of edema inhibition 1 h: 1 h after carrageenan injection; for % of edema inhibition 3 h: 3 h after carrageenan injection; for % of edema inhibition 5 h: 5 h after carrageenan injection
COX-2 = biological target: T1, COX-2 (Homo sapiens, UniProt P35354); experiment: biochemical; type: biochemical; details: for SI (selectivity index): IC50 (COX-1)/IC50 (COX-2); for fold less potent than compound 8o against COX-2: ratio of COX-2 IC50 values
T1 sequence (P35354 18-604): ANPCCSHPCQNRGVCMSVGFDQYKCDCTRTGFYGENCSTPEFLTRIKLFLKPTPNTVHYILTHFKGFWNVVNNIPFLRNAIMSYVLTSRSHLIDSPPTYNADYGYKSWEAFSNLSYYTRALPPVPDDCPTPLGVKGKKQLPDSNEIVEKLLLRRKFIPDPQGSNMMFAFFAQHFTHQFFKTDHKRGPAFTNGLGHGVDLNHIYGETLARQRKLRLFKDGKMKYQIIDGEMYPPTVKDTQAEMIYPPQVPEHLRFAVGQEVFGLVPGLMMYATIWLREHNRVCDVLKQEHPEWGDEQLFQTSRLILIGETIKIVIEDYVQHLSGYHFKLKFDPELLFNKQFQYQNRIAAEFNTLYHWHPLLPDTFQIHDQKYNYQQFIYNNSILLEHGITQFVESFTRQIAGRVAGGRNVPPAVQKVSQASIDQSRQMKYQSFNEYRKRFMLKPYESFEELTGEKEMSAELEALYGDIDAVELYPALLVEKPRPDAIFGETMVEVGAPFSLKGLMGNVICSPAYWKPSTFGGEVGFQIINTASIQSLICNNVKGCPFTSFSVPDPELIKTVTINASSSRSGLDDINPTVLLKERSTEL

5-LOX = details: read-out: 5-LOX (IC50)
sEH = biological target: T2, sEH (Homo sapiens, UniProt P34913); experiment: In vitro sEH inhibition assay; type: biochemical; details: sEH (IC50, nM)
T2 sequence (P34913 1-555): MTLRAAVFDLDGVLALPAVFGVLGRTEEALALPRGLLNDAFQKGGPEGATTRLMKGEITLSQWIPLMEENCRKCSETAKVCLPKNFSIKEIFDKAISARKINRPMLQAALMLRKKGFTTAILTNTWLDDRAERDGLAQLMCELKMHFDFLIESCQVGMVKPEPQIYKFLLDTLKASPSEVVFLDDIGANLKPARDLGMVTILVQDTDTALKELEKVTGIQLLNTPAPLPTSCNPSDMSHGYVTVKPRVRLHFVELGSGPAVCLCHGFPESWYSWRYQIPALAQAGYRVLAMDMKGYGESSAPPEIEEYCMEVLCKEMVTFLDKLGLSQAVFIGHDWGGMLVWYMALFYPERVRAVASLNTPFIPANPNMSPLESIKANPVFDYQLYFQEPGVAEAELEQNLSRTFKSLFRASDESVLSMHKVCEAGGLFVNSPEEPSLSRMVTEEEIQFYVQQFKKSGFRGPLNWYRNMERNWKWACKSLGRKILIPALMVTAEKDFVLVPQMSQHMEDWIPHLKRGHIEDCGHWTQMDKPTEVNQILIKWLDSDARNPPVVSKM

[4] = cited from earlier work

Cc1ccc(-c2cc(C(F)(F)F)nn2-c2ccc(S(N)(=O)=O)cc2)cc1 [Celecoxib, reference compound]
potency [1]: 1.00 | % inhibition (number of writhing) [1]: 13.5% | no. of writhes (mean ± SE) [1]: 29.00 ± 0.70 | % inhibition (number of writhing) ([1]; listed as celecoxib): 13.50% | CK-MB (IU/L) [2]: 96 ± 04 IU/L | LDH (IU/L) [2]: 2100 ± 90 IU/L | troponin-I [2]: 340 ± 10 pg/mL | score: no. of gastric ulcers (rat stomach): 2.5 ± 0.10 | score: severity lesions (rat stomach): 5.80 ± 0.20 | % of edema inhibition 1 h [3]: 40% | % of edema inhibition 3 h [3]: 54% | % of edema inhibition 5 h [3]: 22%

N#CC1=C(N)n2c(nnc2-c2ccccc2)NC1c1ccccc1 (centres unmarked) [Compound 8a, 5-Amino-7,8-dihydro-3,7-diphenyl-[1,2,4]triazolo[4,3-a]pyrimidine-6-carbonitrile]
IC50 (COX-2): 21.7 µM | SI (selectivity index) (COX-2): 10

Cc1ccc(C2Nc3nnc(-c4ccccc4)n3C(N)=C2C#N)cc1 (centres unmarked) [Compound 8d, 5-Amino-7,8-dihydro-3-phenyl-7-p-tolyl-[1,2,4]triazolo[4,3-a]pyrimidine-6-carbonitrile]
IC50 (COX-2): 46.9 µM | SI (selectivity index) (COX-2): 6

COc1ccc(C2Nc3nnc(-c4ccccc4)n3C(N)=C2C#N)cc1 (centres unmarked) [Compound 8e, 5-Amino-7,8-dihydro-7-(4-methoxyphenyl)-3-phenyl-[1,2,4]triazolo[4,3-a]pyrimidine-6-carbonitrile]
IC50 (COX-2): 29.7 µM | SI (selectivity index) (COX-2): 8 | fold less potent than compound 8o against COX-2 (COX-2): 2.8 fold

N#CC1=C(N)n2c(nnc2-c2ccncc2)NC1c1ccccc1 (centres unmarked) [Compound 8f, 5-Amino-7,8-dihydro-7-phenyl-3-(pyridin-4-yl)-[1,2,4]triazolo[4,3-a]pyrimidine-6-carbonitrile]
IC50 (COX-2): 51.5 µM | SI (selectivity index) (COX-2): 6

COc1ccc(C2Nc3nnc(-c4ccncc4)n3C(N)=C2C#N)cc1 (centres unmarked) [Compound 8j, 5-Amino-7,8-dihydro-7-(4-methoxyphenyl)-3-(pyridin-4-yl)-[1,2,4]-triazolo[4,3-a]pyrimidine-6-carbonitrile]
IC50 (COX-2): 42.7 µM | SI (selectivity index) (COX-2): 7 | fold less potent than compound 8o against COX-2 (COX-2): 4 fold

N#CC1=C(N)n2c(nnc2-c2cccnc2)NC1c1ccccc1 (centres unmarked) [Compound 8k, 5-Amino-7,8-dihydro-7-phenyl-3-(pyridin-3-yl)-[1,2,4]triazolo[4,3-a]pyrimidine-6-carbonitrile]
IC50 (COX-2): 37.5 µM | SI (selectivity index) (COX-2): 8 | fold less potent than compound 8o against COX-2 (COX-2): 3.5 fold

N#CC1=C(N)n2c(nnc2-c2cccnc2)NC1c1ccc(Br)cc1 (centres unmarked) [Compound 8l, 5-Amino-7-(4-bromophenyl)-7,8-dihydro-3-(pyridin-3-yl)-[1,2,4]triazolo [4,3-a]pyrimidine-6-carbonitrile]
IC50 (COX-2): 53.7 µM | SI (selectivity index) (COX-2): 4

N#CC1=C(N)n2c(nnc2-c2cccnc2)NC1c1ccc(Cl)cc1 (centres unmarked) [Compound 8m, 5-Amino-7-(4-chlorophenyl)-7,8-dihydro-3-(pyridin-3-yl)-[1,2,4]triazolo [4,3-a]pyrimidine-6-carbonitrile]
potency [1]: 3 | % inhibition (number of writhing) [1]: 41% | no. of writhes (mean ± SE) [1]: 19.00 ± 0.60 | CK-MB (IU/L) [2]: 20 ± 02 IU/L | LDH (IU/L) [2]: 1485 ± 60 IU/L | troponin-I [2]: 128 ± 06 pg/mL | IC50 (5-LOX): 2.9 µM and 3.05 µM | IC50 (sEH): 2.95 ± 0.08 nM | IC50 (COX-2): 11.6 µM | SI (selectivity index) (COX-2): 20 | % of edema inhibition 1 h [3]: 32% | % of edema inhibition 3 h [3]: 59% | % of edema inhibition 5 h [3]: 70%

Cc1ccc(C2Nc3nnc(-c4cccnc4)n3C(N)=C2C#N)cc1 (centres unmarked) [Compound 8n, 5-Amino-7,8-dihydro-3-(pyridin-3-yl)-7-p-tolyl-[1,2,4]triazolo[4,3-a]pyrimidine-6-carbonitrile]
IC50 (COX-2): 21.9 µM | SI (selectivity index) (COX-2): 10

COc1ccc(C2Nc3nnc(-c4cccnc4)n3C(N)=C2C#N)cc1 (centres unmarked) [Compound 8o, 5-Amino-7,8-dihydro-7-(4-methoxyphenyl)-3-(pyridin-3-yl)-[1,2,4] triazolo[4,3-a]pyrimidine-6-carbonitrile]
potency [1]: 3.5 | % inhibition (number of writhing) [1]: 47% and 47.50% | no. of writhes (mean ± SE) [1]: 15.00 ± 0.50 | CK-MB (IU/L) [2]: 17 ± 01 IU/L | LDH (IU/L) [2]: 1390 ± 50 IU/L | troponin-I [2]: 107 ± 05 pg/mL | IC50 (5-LOX): 3.05 µM | score: no. of gastric ulcers (rat stomach): 0 | score: severity lesions (rat stomach): 0 | ulceration in the isolated rat stomach (observation) (rat stomach): no ulceration | IC50 (sEH): 2.1 ± 0.07 nM | % of edema inhibition 1 h [3]: 37% | % of edema inhibition 3 h [3]: 61% | % of edema inhibition 5 h [3]: 73%

CC(C)Cc1ccc(C(C)C(=O)O)cc1 (centres unmarked) [ibuprofen]
ulcer index [4]: 21.26

COc1ccc2c(c1)c(CC(=O)O)c(C)n2C(=O)c1ccc(Cl)cc1 [indomethacin]
score: no. of gastric ulcers (rat stomach): 8.5 ± 0.40 | score: severity lesions (rat stomach): 12.50 ± 0.70
